Reference: patent publication US20200270309A1, “MALEIMIDE GROUP-MODIFIED ANGIOGENESIS INHIBITOR HM-1 AND USE THEREOF” (NANJING ANJI BIOLOGICAL TECHNOLOGY CO., LTD, priority 2017, published 2020)
Marks after values point to notes of the source that are not given here. Peptide text beside a SMILES is read from it. * marks the point of attachment. X60 = O=C1C=CC(=O)N1c1ccccc1CCCCCCCCCC(=O)*; X52 = O=C1C=CC(=O)N1c1ccccc1CCCCCCCC(=O)*

Key:
[1] = Half-lives and pharmacokinetic parameters of polypeptides vs HM-1; conditions: in vivo; for half-life: T1/2β (half-life)
[2] = tested on: splenic lymphocytes; experiment: Proliferation of splenic lymphocytes in mice (ConA, MTT); type: cell-based; conditions: ConA-stimulated mouse splenic lymphocytes, 48 h
Protocol: Spleens of mice were taken out under aseptic conditions, washed with blank 1640 culture medium 3 times, ground with a 5 mL syringe core, filtered with a 200-mesh sieve, made into a single cell suspension. The suspension was centrifuged (1000 rpm×5 min), and supernatant was removed. Red blood cells were lysed by Tris-NH4Cl, and placed in ice water bath for 4 min and centrifuged (1000 rpm×5 min). The supernatant was removed, and the cells were washed twice with sterile PBS. Finally, RPMI 1640 culture solution (5 mL) containing 10% calf serum was added to suspend the cells. The cells were counted and the cell concentration was adjusted to 5×10^6 cells/mL, and the cells were cultured in a 96-well culture plate.
Blank control group, concanavalin A (ConA) group and dexamethasone (Dex) group were set in the experiment, and polypeptide X1-X90 groups were set as test groups. After 100 μL of splenic lymphocytes suspension per well was added into each group, 100 μL of blank 1640 culture solution was added into the blank control group, ConA was added into the ConA group, Dex was added into the Dex group, and ConA was added into the test groups on the basis of adding different concentrations of polypeptides X1-X90. The cells were static cultured at 37° C. in a cell incubator for 48 h. After the cultivation was completed, 20 μL of MTT was added to each well, and the cultivation was continued for 4 h. Finally, all the solutions in each well were discarded. 100 μL DMSO was added to each well and shaken, and the OD value at 570 nm was detected with a microplate reader. Five parallel experiments were set in each well.

[3] = tested on: carrageenan-induced toe swelling; experiment: Carrageenan-induced toe swelling in rats; type: in vivo; conditions: SD rats; for Swelling degree 1 h: 1 h after carrageenan; for Swelling degree 3 h: 3 h after carrageenan; for Swelling degree 5 h: 5 h after carrageenan; for Swelling degree 7 h: 7 h after carrageenan
Protocol: The rats were injected once a day, and the model group was given the same volume of normal saline for 3 d and fed normally. […] The foot swelling degree was calculated according to the following formula: foot swelling degree (mL)=foot volume after inflammation-foot volume before inflammation. The number of milliliters of overflow liquid was recorded (method: a ballpoint pen is used to circle the protruding point of the right joint as a measurement mark, and the right hind feet of each rat are sequentially placed into the volume measurer, so that the hind limbs are exposed outside the barrel, and the immersion depth is at the coincidence of the circle and the liquid level. After the foot enters the liquid, the liquid level rises, and the volume of overflow liquid is the volume of the right hind foot of the rat, and the normal volume of the right hind foot of each rat is measured in sequence).

[4] = tested on: choroidal neovascularization; experiment: Choroidal neovascularization in rats (laser photocoagulation, FFA); type: in vivo; conditions: BN rats
Protocol: 6-8 weeks male BN rats were fully anesthetized by intraperitoneal injection of 846 compound anesthetic with a concentration of 0.5 mL/kg. Compound tropicamide eye drops were used once 5 min before laser photocoagulation to fully dilate the pupils of both eyes. The animals were fixed and subjected to krypton laser photocoagulation equidistantly around an optic disc with the aid of a −53.00D corneal contact lens at a distance of 2PD from the optic disc. A total of 8 photocoagulation spots were obtained. The laser wavelength was 647.1 nm, the power was 350 mW, and the diameter and time of the photocoagulation spots were 50 μm and 0.05 s respectively. Fundus photography was performed immediately after photocoagulation. FFA, histopathology and transmission electron microscopy were performed on the days 3, 7, 14, 21 and 28 after photocoagulation respectively.
Through fundus photography and FFA examination, it was confirmed that the fluorescein leakage of the photocoagulation spot reached its peak on day 21 after photocoagulation. At the same time, histopathological examination was carried out.
Rats with successful modeling were randomly grouped, with 5 rats in each group. The groups were marked as a negative control group and X1-X90 treatment groups respectively. The rats were injected with normal saline and X1-X90 (the doses of X1-X90 were each 0.05 μM) in the vitreous chamber once a day for 1 week. FFA examination was carried out 3 days, 7 days, 14 days and 28 days after administration.

[5] = tested on: retinal neovascularization (OIR model); experiment: Retinal vessels in OIR mice; type: in vivo, C57/B16 mice; conditions: for Area of neovascular plexus (mm^2): dose 0.05 μM in the vitreous chamber on day 13, retinal vessels evaluated on day 17; for Inhibition rate (%): dose 0.05 μM in the vitreous chamber on day 13, retinal vessels evaluated on day 17, vs negative control
From the text: Establishment of an OIR model: Young mice and their mothers were exposed in a 75% hyperoxic environment from day 7 to day 12 after the birth of C57/B16 mice, which caused capillaries in their central retina to disappear rapidly. The mice were returned to the indoor air on day 12, retinal vessels exposed to hyperoxia quickly disappeared, causing extensive abnormal neoangiogenesis, and the central part of the retina remained largely avascular for a long time. After the blood vessels disappeared completely, the mice were injected with normal saline (a negative group), X1-X12, X13-X44, X45-X90 in the vitreous chamber on day 13 respectively, and retinal vessels were evaluated on day 17 ([…] of Texas red labeled tomato agglutinin was injected into the left ventricle to mark unclosed vessels and circulated for 5 min).

[6] = day 3 after administration, total light spot number was 297, 0.05 μM in the vitreous chamber once a day for 1 week
[7] = day 7 after administration, total light spot number was 186, 0.05 μM in the vitreous chamber once a day for 1 week
[8] = day 14 after administration, total light spot number was 137, 0.05 μM in the vitreous chamber once a day for 1 week
[9] = day 28 after administration, total light spot number was 69, 0.05 μM in the vitreous chamber once a day for 1 week

Row | AUC(0-inf) [1] | MRT inf [1] | clearance [1] | half-life [1] | SMILES | A570 nm/A630 nm ([2]; polypeptide dose 0.05 μM) | Inhibition rate (%) ([2]; polypeptide dose 0.05 μM) | A570 nm/A630 nm ([2]; polypeptide dose 0.1 μM) | Inhibition rate (%) ([2]; polypeptide dose 0.1 μM) | A570 nm/A630 nm ([2]; polypeptide dose 0.2 μM) | Inhibition rate (%) ([2]; polypeptide dose 0.2 μM) | Swelling degree 1 h ([3]; 2.0 mg/kg once a day for 3 d) | Swelling degree 3 h ([3]; 2.0 mg/kg once a day for 3 d) | Swelling degree 5 h ([3]; 2.0 mg/kg once a day for 3 d) | Swelling degree 7 h ([3]; 2.0 mg/kg once a day for 3 d) | Swelling degree 1 h ([3]; 4.0 mg/kg once a day for 3 d) | Swelling degree 3 h ([3]; 4.0 mg/kg once a day for 3 d) | Swelling degree 5 h ([3]; 4.0 mg/kg once a day for 3 d) | Swelling degree 7 h ([3]; 4.0 mg/kg once a day for 3 d) | CNV Incidence (%) [4, 6] | Leakage Light spot number [4, 6] | other results
1 | 32200 ± 6970 ng·h/mL | 57.6 ± 10.8 h | 0.518 mL/min/kg | 39.95 ± 0.28 h | C[C@H](NC(=O)CNC(=O)[C@H](CCCNC(=N)N)NC(=O)CCCCCCCc1ccccc1N1C(=O)C=CC1=O)C(=O)N[C@@H](CC(=O)O)C(=O)N[C@@H](CCCNC(=N)N)C(=O)N[C@@H](C)C(=O)NCC(=O)NCC(=O)NCC(=O)NCC(=O)N[C@@H](CCCNC(=N)N)C(=O)NCC(=O)N[C@@H](CC(=O)O)C(=O)O [X19] (X52-RGADRAGGGGRGD-OH) | 0.5093 ± 0.0372 | 24.59% | 0.5027 ± 0.0814 | 25.57% | 0.4978 ± 0.0481 | 26.30% | 0.21 ± 0.13 mg | 0.33 ± 0.15 mg | 0.36 ± 0.17 mg | 0.32 ± 0.12 mg | 0.26 ± 0.11 mg | 0.38 ± 0.17 mg | 0.42 ± 0.15 mg | 0.32 ± 0.18 mg | 52.19% | 155 | CNV Incidence (%) [4, 7]: 45.70%; Leakage Light spot number [4, 7]: 85; CNV Incidence (%) [4, 8]: 41.61%; Leakage Light spot number [4, 8]: 57; CNV Incidence (%) [4, 9]: 44.93%; Leakage Light spot number [4, 9]: 31; Area of neovascular plexus (mm^2) [5]: 0.083 ± 0.019 mm^2; Inhibition rate (%) [5]: 60.85%**
2 | 34000 ± 8190 ng·h/mL | 60.9 ± 9.41 h | 0.49 mL/min/kg | 42.24 ± 0.28 h | C[C@H](NC(=O)CNC(=O)[C@H](CCCNC(=N)N)NC(=O)CCCCCCCCCc1ccccc1N1C(=O)C=CC1=O)C(=O)N[C@@H](CC(=O)O)C(=O)N[C@@H](CCCNC(=N)N)C(=O)N[C@@H](C)C(=O)NCC(=O)NCC(=O)NCC(=O)NCC(=O)N[C@@H](CCCNC(=N)N)C(=O)NCC(=O)N[C@@H](CC(=O)O)C(=O)O [X21] (X60-RGADRAGGGGRGD-OH) | 0.5904 ± 0.0399 | 12.59% | 0.5776 ± 0.1193 | 14.48% | 0.4947 ± 0.1055 | 26.75% | 0.23 ± 0.19 mg | 0.32 ± 0.17 mg | 0.39 ± 0.16 mg | 0.33 ± 0.12 mg | 0.25 ± 0.17 mg | 0.33 ± 0.13 mg | 0.39 ± 0.14 mg | 0.35 ± 0.18 mg | 50.84% | 151 | CNV Incidence (%) [4, 7]: 47.85%; Leakage Light spot number [4, 7]: 89; CNV Incidence (%) [4, 8]: 46.72%; Leakage Light spot number [4, 8]: 64; CNV Incidence (%) [4, 9]: 40.58%; Leakage Light spot number [4, 9]: 28; Area of neovascular plexus (mm^2) [5]: 0.118 ± 0.012 mm^2; Inhibition rate (%) [5]: 44.34%*
